Where “and” joins values, the source holds several entries; their conditions need not be identical. Identical values can stand only once.
Tested on: HIV-1JR-FL EnvΔCT expressed at the surface of HOS cells
Assay: Cell-based ELISA (CBE), 17b readout
Settings: for Fold over BNM-III-170 - 17b binding (±0.05): MCG analogs 50 μM, BNM-III-170 5 μM, 2G12 and DMSO normalized; for capacity to expose the CoRBS (17b binding, CBE): compounds 50 μM, result in words
Method in brief: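 HOS cells transiently expressing cytoplasmic-tail-truncated HIV-1JR-FL Env were treated 30 min at room temperature with compounds (50 μM), sCD4 ([…]) or DMSO, then 1 h with 17b antibody. Bound 17b was detected by HRP-conjugated anti-Fc chemiluminescence; values are fold over BNM-III-170 (5 μM), normalized to 2G12 and DMSO.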

Structure (SMILES) | Fold over BNM-III-170 - 17b binding (±0.05) | capacity to expose the CoRBS (17b binding, CBE)
CS(=O)(=O)N1CCC[C@H](C(=O)Nc2ccc(Br)cc2)C1 [(S)-MCG-III-027-A02] | 0.36 fold | 
CS(=O)(=O)N1CCC[C@H](C(=O)Nc2ccc(F)cc2)C1 [(S)-MCG-III-027-A03] | 0.12 fold | 
CS(=O)(=O)N1CCC[C@H](C(=O)Nc2cccc(Cl)c2)C1 [(S)-MCG-III-027-B01] | 0.10 fold | 
CS(=O)(=O)N1CCC[C@H](C(=O)Nc2cccc(Br)c2)C1 [(S)-MCG-III-027-B02] | 0.10 fold | 
CS(=O)(=O)N1CCC[C@H](C(=O)Nc2cccc(F)c2)C1 [(S)-MCG-III-027-B03] | 0.13 fold | 
CS(=O)(=O)N1CCC[C@H](C(=O)Nc2cccc(C(F)(F)F)c2)C1 [(S)-MCG-III-027-B04] | 0.07 fold | 
COc1cccc(NC(=O)[C@H]2CCCN(S(C)(=O)=O)C2)c1 [(S)-MCG-III-027-B05] | 0.06 fold | 
CS(=O)(=O)N1CCC[C@H](C(=O)Nc2ccccc2Cl)C1 [(S)-MCG-III-027-C01] | 0.06 fold | 
CS(=O)(=O)N1CCC[C@H](C(=O)Nc2ccc(F)cc2F)C1 [(S)-MCG-III-027-D04] | 0.07 fold | 
CS(=O)(=O)N1CCC[C@H](C(=O)Nc2ccc(Cl)c(F)c2)C1 [(S)-MCG-III-027-D05] | 0.46 fold and 0.58 fold | enhanced the capacity
CCS(=O)(=O)N1CCC[C@H](C(=O)Nc2ccc(Cl)c(F)c2)C1 [(S)-MCG-III-085-C01] | 0.35 fold | 
Cn1cnc(S(=O)(=O)N2CCC[C@H](C(=O)Nc3ccc(Cl)c(F)c3)C2)c1 [(S)-MCG-III-116-A02] | 0.24 fold | 
COC(=O)N1CCC[C@H](C(=O)Nc2ccc(Cl)c(F)c2)C1 [(S)-MCG-III-188-A01] | 0.50 fold | higher activity
CCOC(=O)N1CCC[C@H](C(=O)Nc2ccc(Cl)c(F)c2)C1 [(S)-MCG-III-188-A02] | 0.53 fold | higher activity
CCCNC(=O)N1CCC[C@H](C(=O)Nc2ccc(Cl)c(F)c2)C1 [(S)-MCG-IV-031-A05] | 0.55 fold | higher activity
NCCNC(=O)N1CCC[C@H](C(=O)Nc2ccc(Cl)c(F)c2)C1 [(S)-MCG-IV-210] | 0.58 fold | higher activity
O=C(Nc1ccc(Cl)c(F)c1)C1CCCN(S(=O)(=O)c2ccccc2)C1 (stereo not drawn) [MCG-III-157-B03] | 0.43 fold | 
Cn1cnc(S(=O)(=O)N2CCCC(C(=O)Nc3ccc(Cl)c(F)c3)C2)c1 (stereo not drawn) [MCG-III-157-B04] | 0.69 fold | 
O=C(Nc1ccc(Cl)c(F)c1)C1CCCOC1 (stereo not drawn) [MCG-III-207] | 0.48 fold | 

Reference: patent US12286401B2, “Small molecules that sensitize HIV-1 infected cells to antibody dependent cellular cytotoxicity” (THE TRUSTEES OF THE UNIVERSITY OF PENNSYLVANIA, priority 2018, dated 2025)
